Experimental data as given in ChEMBL document CHEMBL1152560, “Substituted 2-arylbenzothiazoles as kinase inhibitors: hit-to-lead optimization” (Bioorg Med Chem, 2009).

Tests used:
[1] = molecular target: Tyrosine-protein kinase HCK (Homo sapiens) (UniProt P08631); assay: Residual activity of HCK at 1 uM by microplate scintillation counting
[2] = molecular target: Homeodomain-interacting protein kinase 1 (Homo sapiens) (UniProt Q86Z02); assay: Residual activity of HIPK1 at 1 uM by microplate scintillation counting
[3] = molecular target: Interleukin-1 receptor-associated kinase 1 (Homo sapiens) (UniProt P51617); assay: Residual activity of IRAKI at 0.1 uM by microplate scintillation counting
[4] = molecular target: T1, Inhibitor of nuclear factor kappa-B kinase subunit alpha (Homo sapiens) (UniProt O15111); assay: Residual activity of IKKalpha at 1 uM by microplate scintillation counting
T1 sequence (whole entry): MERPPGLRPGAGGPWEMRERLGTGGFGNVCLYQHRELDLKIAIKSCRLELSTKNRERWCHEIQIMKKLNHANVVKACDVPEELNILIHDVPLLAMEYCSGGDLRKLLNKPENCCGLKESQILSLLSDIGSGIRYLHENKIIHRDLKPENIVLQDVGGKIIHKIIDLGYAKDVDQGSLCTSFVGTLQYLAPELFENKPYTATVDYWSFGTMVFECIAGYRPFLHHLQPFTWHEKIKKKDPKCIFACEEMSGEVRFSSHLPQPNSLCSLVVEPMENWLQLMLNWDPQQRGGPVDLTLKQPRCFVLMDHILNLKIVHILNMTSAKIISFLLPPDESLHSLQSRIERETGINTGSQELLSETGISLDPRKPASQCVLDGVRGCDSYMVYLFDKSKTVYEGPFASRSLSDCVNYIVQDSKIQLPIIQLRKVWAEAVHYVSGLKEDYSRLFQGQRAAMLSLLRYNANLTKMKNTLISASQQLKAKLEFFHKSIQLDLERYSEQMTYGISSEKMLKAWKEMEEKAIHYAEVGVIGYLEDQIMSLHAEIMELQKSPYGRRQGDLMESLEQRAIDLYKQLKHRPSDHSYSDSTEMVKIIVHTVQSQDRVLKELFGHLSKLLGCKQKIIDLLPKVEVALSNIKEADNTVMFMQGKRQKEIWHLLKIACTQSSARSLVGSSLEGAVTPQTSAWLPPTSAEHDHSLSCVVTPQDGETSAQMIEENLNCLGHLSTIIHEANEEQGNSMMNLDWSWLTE

[5] = molecular target: Mitogen-activated protein kinase kinase kinase 14 (Homo sapiens) (UniProt Q99558); assay: Residual activity of NIK at 1 uM by microplate scintillation counting
[6] = molecular target: Protein-tyrosine kinase 2-beta (Homo sapiens) (UniProt Q14289); assay: Residual activity of PYK2 at 1 uM by microplate scintillation counting
[7] = molecular target: T2, Testis-specific serine/threonine-protein kinase 1 (Homo sapiens) (UniProt Q9BXA7); assay: Residual activity of TSSK1 at 1 uM by microplate scintillation counting
T2 sequence (whole entry): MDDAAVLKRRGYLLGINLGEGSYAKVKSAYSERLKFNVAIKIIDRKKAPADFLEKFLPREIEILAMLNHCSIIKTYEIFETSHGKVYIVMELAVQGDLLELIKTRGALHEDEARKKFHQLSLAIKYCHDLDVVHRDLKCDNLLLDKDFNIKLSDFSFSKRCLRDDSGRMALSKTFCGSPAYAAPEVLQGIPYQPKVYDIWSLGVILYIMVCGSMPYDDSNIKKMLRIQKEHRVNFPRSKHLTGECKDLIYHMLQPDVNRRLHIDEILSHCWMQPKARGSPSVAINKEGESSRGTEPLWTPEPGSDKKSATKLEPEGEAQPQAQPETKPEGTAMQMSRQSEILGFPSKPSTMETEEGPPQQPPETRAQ

[8] = system: Epidermal growth factor receptor (Homo sapiens), P00533 [L858R]; assay: Residual activity of EGFR L858R mutant at 10 uM by microplate scintillation counting
[9] = molecular target: Homeodomain-interacting protein kinase 1 (Homo sapiens) (UniProt Q86Z02); assay: Residual activity of HIPK1 at 10 uM by microplate scintillation counting
[10] = molecular target: T3, Inhibitor of nuclear factor kappa-B kinase subunit beta (Homo sapiens) (UniProt O14920); assay: Residual activity of IKK-beta at 10 uM by microplate scintillation counting
T3 sequence (whole entry): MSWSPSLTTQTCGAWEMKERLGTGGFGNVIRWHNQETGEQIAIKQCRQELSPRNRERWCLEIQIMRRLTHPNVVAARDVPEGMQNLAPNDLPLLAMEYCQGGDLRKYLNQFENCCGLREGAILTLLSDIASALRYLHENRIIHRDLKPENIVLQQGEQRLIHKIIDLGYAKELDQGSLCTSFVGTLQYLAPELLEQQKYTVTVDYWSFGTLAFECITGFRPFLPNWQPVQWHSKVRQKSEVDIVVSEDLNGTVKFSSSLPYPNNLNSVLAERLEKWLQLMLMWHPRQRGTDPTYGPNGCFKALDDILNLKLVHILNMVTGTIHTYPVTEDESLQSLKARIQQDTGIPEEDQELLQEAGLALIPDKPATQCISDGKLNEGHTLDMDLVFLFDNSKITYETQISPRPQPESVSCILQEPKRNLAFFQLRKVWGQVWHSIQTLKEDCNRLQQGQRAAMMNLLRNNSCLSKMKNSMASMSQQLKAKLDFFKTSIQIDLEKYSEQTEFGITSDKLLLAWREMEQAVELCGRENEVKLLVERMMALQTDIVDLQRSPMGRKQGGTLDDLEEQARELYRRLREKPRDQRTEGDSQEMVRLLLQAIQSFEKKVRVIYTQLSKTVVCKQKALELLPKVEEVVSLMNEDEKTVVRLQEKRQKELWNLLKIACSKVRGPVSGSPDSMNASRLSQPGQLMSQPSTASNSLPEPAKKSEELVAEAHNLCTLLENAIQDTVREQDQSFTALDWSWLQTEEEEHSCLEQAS

[11] = system: Tyrosine-protein kinase ABL1 (Homo sapiens), P00519 [T315I]; assay: Residual activity of ABL1 T315I mutant at 0.1 uM by microplate scintillation counting
[12] = molecular target: RAC-alpha serine/threonine-protein kinase (Homo sapiens) (UniProt P31749); assay: Residual activity of AKT1 at 0.1 uM by microplate scintillation counting
Aurora kinase B = Aurora kinase B (Homo sapiens, UniProt Q96GD4); assay: Residual activity of Aurora-B at 0.1 uM by microplate scintillation counting
[13] = molecular target: Ribosomal protein S6 kinase alpha-4 (Homo sapiens) (UniProt O75676); assay: Residual activity of RPS6KA4 at 0.1 uM by microplate scintillation counting
[14] = molecular target: 3-phosphoinositide-dependent protein kinase 1 (Homo sapiens) (UniProt O15530); assay: Residual activity of PDK1 at 1 uM by microplate scintillation counting
Sequence of 3-phosphoinositide-dependent protein kinase 1 (Homo sapiens) (O15530 whole entry, looked up): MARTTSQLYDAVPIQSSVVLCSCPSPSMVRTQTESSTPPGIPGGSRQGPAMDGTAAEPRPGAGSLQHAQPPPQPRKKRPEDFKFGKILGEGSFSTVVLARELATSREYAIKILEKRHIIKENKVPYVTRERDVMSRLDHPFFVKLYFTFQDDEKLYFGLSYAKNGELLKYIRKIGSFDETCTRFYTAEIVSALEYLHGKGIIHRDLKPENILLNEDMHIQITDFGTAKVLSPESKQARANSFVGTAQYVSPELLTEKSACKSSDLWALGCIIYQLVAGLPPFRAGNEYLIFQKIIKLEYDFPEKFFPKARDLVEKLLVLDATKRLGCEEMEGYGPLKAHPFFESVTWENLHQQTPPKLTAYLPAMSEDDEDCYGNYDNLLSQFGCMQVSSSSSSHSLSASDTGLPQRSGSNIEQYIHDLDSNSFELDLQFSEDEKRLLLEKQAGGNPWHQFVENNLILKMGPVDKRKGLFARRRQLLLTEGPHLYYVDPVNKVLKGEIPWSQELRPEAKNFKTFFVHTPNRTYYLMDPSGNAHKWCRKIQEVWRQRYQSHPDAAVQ

Sequence of Homeodomain-interacting protein kinase 1 (Homo sapiens) (Q86Z02 whole entry, looked up): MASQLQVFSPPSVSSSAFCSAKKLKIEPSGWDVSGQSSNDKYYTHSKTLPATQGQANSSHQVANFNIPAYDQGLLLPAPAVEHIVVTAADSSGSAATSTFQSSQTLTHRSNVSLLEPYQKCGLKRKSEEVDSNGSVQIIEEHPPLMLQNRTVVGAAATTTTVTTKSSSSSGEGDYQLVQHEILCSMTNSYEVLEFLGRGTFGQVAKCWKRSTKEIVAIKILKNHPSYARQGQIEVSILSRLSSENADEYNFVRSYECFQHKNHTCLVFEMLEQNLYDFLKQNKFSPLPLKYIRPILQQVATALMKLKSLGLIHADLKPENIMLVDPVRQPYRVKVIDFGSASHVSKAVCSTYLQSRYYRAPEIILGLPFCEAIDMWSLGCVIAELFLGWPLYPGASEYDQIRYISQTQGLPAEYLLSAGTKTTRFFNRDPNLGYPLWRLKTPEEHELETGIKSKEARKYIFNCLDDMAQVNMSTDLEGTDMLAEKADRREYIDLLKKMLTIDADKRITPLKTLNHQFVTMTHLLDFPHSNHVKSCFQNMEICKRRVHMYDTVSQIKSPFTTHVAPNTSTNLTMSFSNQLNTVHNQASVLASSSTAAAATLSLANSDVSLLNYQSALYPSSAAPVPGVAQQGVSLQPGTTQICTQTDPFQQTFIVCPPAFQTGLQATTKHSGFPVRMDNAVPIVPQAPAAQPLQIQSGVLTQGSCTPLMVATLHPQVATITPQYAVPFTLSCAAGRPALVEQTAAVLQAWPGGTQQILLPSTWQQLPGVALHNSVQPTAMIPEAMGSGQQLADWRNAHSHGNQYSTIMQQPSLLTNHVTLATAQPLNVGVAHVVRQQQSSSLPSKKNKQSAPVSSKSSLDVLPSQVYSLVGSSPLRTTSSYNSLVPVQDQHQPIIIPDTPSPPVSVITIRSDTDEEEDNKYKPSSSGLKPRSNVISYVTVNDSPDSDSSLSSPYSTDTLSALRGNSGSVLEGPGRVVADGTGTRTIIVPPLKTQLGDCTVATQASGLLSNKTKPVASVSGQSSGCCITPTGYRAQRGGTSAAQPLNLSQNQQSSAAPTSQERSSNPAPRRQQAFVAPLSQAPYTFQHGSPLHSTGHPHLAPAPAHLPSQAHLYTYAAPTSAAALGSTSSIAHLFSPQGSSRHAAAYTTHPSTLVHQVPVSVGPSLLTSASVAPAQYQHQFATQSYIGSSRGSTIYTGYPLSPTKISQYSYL
Sequence of Mitogen-activated protein kinase kinase kinase 14 (Homo sapiens) (Q99558 whole entry, looked up): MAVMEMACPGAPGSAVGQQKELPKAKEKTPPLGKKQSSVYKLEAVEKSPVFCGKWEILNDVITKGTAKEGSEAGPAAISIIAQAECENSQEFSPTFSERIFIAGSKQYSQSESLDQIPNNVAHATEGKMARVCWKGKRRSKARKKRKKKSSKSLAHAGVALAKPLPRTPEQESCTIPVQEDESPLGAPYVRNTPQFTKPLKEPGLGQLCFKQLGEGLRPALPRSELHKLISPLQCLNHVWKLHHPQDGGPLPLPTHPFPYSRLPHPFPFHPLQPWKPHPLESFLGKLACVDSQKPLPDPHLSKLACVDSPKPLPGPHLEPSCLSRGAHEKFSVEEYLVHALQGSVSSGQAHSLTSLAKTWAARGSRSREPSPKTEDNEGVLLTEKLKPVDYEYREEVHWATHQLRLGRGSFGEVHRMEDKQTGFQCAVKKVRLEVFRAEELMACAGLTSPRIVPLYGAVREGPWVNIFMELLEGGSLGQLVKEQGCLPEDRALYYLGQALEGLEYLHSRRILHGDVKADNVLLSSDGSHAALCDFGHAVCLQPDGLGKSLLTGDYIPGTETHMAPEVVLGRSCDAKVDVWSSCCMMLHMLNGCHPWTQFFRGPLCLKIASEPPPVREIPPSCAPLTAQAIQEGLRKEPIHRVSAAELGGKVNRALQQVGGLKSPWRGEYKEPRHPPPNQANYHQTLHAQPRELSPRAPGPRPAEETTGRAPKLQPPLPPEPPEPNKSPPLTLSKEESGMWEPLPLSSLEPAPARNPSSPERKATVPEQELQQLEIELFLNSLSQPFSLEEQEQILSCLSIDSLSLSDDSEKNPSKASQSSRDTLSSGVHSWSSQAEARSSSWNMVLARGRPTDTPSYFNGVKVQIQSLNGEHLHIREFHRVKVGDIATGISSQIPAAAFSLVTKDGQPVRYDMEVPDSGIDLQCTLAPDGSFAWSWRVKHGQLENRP
Sequence of Ribosomal protein S6 kinase alpha-4 (Homo sapiens) (O75676 whole entry, looked up): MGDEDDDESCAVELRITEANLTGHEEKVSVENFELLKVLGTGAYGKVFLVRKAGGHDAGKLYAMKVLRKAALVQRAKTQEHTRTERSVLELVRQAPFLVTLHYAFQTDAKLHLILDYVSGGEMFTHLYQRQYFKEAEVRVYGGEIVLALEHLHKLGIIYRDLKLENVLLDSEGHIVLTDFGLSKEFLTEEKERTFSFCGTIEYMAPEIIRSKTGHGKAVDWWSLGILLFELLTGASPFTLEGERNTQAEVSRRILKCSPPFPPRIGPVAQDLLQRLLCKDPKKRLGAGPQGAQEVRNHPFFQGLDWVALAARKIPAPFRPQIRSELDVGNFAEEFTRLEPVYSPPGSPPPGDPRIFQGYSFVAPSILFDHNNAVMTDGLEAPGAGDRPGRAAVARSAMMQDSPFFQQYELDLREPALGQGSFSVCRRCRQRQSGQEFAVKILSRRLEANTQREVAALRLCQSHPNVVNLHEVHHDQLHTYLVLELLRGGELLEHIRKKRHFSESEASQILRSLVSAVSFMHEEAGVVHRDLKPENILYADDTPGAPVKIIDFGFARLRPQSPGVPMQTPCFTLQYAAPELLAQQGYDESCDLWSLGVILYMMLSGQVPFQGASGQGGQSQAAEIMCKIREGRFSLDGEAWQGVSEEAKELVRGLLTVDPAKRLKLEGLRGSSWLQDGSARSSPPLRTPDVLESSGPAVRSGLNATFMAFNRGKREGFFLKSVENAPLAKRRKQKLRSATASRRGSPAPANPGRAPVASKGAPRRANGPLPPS
Sequence of Aurora kinase B (Q96GD4 whole entry): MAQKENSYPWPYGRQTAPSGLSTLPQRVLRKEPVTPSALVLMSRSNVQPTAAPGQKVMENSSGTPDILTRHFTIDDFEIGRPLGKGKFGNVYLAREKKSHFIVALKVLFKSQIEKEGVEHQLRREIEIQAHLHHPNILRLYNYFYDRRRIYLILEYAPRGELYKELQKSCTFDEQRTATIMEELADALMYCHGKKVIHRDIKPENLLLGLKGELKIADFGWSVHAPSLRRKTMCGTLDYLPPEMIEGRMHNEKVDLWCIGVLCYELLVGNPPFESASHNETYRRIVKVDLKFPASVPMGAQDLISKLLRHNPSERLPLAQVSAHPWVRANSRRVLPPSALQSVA
Sequence of Tyrosine-protein kinase HCK (Homo sapiens) (P08631 2-526 limits assumed): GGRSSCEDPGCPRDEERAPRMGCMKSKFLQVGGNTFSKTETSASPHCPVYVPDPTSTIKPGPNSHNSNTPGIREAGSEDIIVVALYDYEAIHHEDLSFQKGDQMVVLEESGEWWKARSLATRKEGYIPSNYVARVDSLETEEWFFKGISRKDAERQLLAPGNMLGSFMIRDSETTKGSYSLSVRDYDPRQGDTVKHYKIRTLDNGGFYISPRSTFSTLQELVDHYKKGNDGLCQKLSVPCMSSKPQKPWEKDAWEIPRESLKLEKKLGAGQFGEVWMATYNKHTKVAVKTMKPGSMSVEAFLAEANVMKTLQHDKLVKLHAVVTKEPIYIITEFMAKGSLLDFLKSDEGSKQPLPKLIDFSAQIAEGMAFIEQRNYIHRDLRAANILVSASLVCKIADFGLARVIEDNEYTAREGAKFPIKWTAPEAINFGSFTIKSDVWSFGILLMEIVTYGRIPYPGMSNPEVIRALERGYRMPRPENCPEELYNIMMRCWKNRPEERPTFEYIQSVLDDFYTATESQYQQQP
Sequence of RAC-alpha serine/threonine-protein kinase (Homo sapiens) (P31749 whole entry): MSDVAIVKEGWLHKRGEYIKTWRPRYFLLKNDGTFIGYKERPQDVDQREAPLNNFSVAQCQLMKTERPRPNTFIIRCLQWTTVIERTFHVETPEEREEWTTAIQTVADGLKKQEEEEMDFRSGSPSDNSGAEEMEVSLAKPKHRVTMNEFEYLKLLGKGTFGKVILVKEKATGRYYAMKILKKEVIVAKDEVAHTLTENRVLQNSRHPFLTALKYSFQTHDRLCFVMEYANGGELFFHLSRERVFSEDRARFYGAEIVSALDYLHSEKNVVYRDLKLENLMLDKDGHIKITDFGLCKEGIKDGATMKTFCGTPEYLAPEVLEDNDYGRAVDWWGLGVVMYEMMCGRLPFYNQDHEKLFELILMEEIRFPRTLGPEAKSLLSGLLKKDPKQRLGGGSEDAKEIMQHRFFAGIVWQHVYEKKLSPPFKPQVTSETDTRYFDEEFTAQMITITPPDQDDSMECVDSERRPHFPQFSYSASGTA

For COc1cc2c(Oc3ccc(-c4nc5ccccc5s4)cc3)ncnc2cc1OCCCN1CCN(C)CC1, which residual activity [1] is on record?
Its residual activity is 93%.

What about the residual activity [2] of the same compound?
Its residual activity is 82%.

What about the residual activity [3] of the same compound?
The residual activity was 77%.

And the residual activity [4]?
The residual activity was 98%.

What about the residual activity [5] of the same compound?
The residual activity was 85%.

What about the residual activity [6] of the same compound?
The residual activity was 97%.

What about the residual activity [7] of the same compound?
Its residual activity is 55%.

And the residual activity [8]?
Its residual activity is 22%.

And the residual activity [9]?
The residual activity was 132%.

And the residual activity [10]?
Its residual activity is 109%.

What about the residual activity [11] of the same compound?
Its residual activity is 96%.

What about the residual activity [12] of the same compound?
The residual activity was 102%.

And the residual activity (Aurora kinase B)?
Its residual activity is 40%.

And the residual activity [13]?
Its residual activity is 91%.

And the residual activity [14]?
The residual activity was 101%.

Which results are given for COc1cc2c(Oc3ccc(-c4nc5ccccc5s4)cc3F)ncnc2cc1OCCCN1CCN(C)CC1?
residual activity [1]: 99%; residual activity [2]: 81%; residual activity [3]: 84%; residual activity [4]: 99%; residual activity [5]: 88%; residual activity [6]: 105%; residual activity [7]: 73%; residual activity [8]: 24%; residual activity [9]: 142%; residual activity [10]: 116%; residual activity [11]: 100%; residual activity [12]: 100%; residual activity (Aurora kinase B): 45%; residual activity [13]: 93%; residual activity [14]: 108%

With COc1cc2c(Oc3ccc(-c4nc5ccccc5s4)cc3)ncnc2cc1OCCCN1CCCC1 as the compound, how does the residual activity [1] read?
Its residual activity is 116%.

And the residual activity [2]?
Its residual activity is 77%.

And the residual activity [3]?
Its residual activity is 61%.

And the residual activity [4]?
The residual activity was 95%.

What about the residual activity [5] of the same compound?
Its residual activity is 93%.

What about the residual activity [6] of the same compound?
Its residual activity is 109%.

What about the residual activity [7] of the same compound?
The residual activity was 40%.

What about the residual activity [8] of the same compound?
Its residual activity is 46%.

And the residual activity [9]?
Its residual activity is 103%.

And the residual activity [10]?
The residual activity was 135%.

And the residual activity [11]?
Its residual activity is 98%.

What about the residual activity [12] of the same compound?
Its residual activity is 91%.

What about the residual activity (Aurora kinase B) of the same compound?
The residual activity was 48%.

What about the residual activity [13] of the same compound?
Its residual activity is 88%.

What about the residual activity [14] of the same compound?
The residual activity was 102%.
